The source of these data is patent publication US10653667B2, “Drug for preventing, treating or preventing metastasis of giant cell tumor that occurs in bone or soft parts, chondrosarcoma, or osteosarcoma, local injection for arterial embolization, and artificial bone” (NIPPON CHEMIPHAR CO., LTD, priority 2013, dated 2020).

The subject of experiment [1] is cultured cells of giant cell tumor of tendon sheath (GCTT). As to the kind of experiment: Suppression of cell proliferation of GCTT cultured cells (CCK-8). It counts as cell-based, human. The conditions noted are these: drug at various concentrations, CCK-8 24 hours after addition.
In experiment [2] the test system is PPARγ expression in cells of giant cell tumor of tendon sheath (GCTT). As to the kind of experiment: PPARγ immunostaining of GCTT cells. The note with it: zaltoprofen 400 μM or troglitazone 200 μM. The format is cell-based, human.
Experiment [3] concerns cells of giant cell tumor of tendon sheath (GCTT). As to the kind of experiment: Fat cell differentiation of GCTT cells (HCS LipidTOX Green). It counts as cell-based, human. The note with it: zaltoprofen 400 μM, compared with control. As for the experimental part: (§1) It has been reported that PPARγ is a transcription factor indispensable for fat cell differentiation. Therefore, the GCTB cultured cells of the aforementioned case 1 were cultured on chamber cover slide glass, and when they reached confluent, zaltoprofen was added to the cells at various concentrations (10, 50, and 100 μM). From 24 hours thereafter, the cells were cultured in a fat cell differentiation-inducing medium (STREMPRO Adipogenesis Differentiation Kit, Invitrogen) for 7 to 14 days, and differentiation into fat cells was analyzed with HCS Lipid TOX Green Neutral Lipid Stain (Invitrogen) (FIGS. 8 and 9).
(§2) It has been reported that PPARγ is a transcription factor indispensable for fat cell differentiation. Therefore, in the same manner as that of Example 3, zaltoprofen was added at a concentration of 400 μM to the cells of giant cell tumor of tendon sheath (GCTT) or cells of pigmented villonodular synovitis (PVNS), and differentiation into fat cells was analyzed (FIGS. 30 and 31). As a result, it was successfully confirmed that the positive images obtained with HCS LipidTOX Green increased in the zaltoprofen-added cells compared with the control.

Experiment [4] concerns cells of pigmented villonodular synovitis (PVNS). As to the kind of experiment: Fat cell differentiation of PVNS cells (HCS LipidTOX Green). It counts as cell-based, human. The conditions noted are these: zaltoprofen 400 μM, compared with control. As for the experimental part: as §1, §2
Experiment [5] relates to H-EMC-SS cells. Kind of experiment: Caspase 3 staining of chondrosarcoma cell line H-EMC-SS (apoptosis). The note with it: zaltoprofen 200 μM, troglitazone 100 μM or pioglitazone 200 μM, compared with control. The format is cell-based, human. As to the method:
Further, in the same manner as that of Example 1, cells of the chondrosarcoma cell line were subjected to caspase 3 staining, and presence or absence of apoptosis was analyzed (FIGS. 46 and 47).

In experiment [6] the test system is PPARγ expression in H-EMC-SS cells. As to the kind of experiment: PPARγ immunostaining of chondrosarcoma cell line H-EMC-SS. It counts as cell-based, human. The note with it: zaltoprofen 200 μM, troglitazone 100 μM or pioglitazone 200 μM.
Experiment [7] concerns OUMS-27 cells. As to the kind of experiment: Suppression of proliferation of human chondrosarcoma cell line OUMS-27 (CCK-8). It counts as cell-based. The note with it: at concentrations of 200 μM and 400 μM (50-400 μM tested); 72 hours.
Experiment [8] relates to OUMS-27 cells. As to the kind of experiment: Proliferation of OUMS-27 cells cultured beforehand with or without GW9662. It counts as cell-based, human. The conditions noted are these: GW9662 1 μM, 60 minutes beforehand. As for the experimental part:
Cells of the human chondrosarcoma cell line, OUMS-27, were cultured in the same manner as that of Example 1 until they became sub-confluent, then GW9662 (Sigma Aldrich, M6191), which is an irreversible antagonist of PPARγ, was added to the cells at a final concentration of 1 μM, and the cells were cultured for 60 minutes.

Experiment [9] has as its system SW1353 cells. As to the kind of experiment: Proliferation of SW1353 cells cultured beforehand with PPARγ siRNA or control siRNA. The format is cell-based, human.
The subject of experiment [10] is human PVNS cells. Kind of experiment: Proliferation of human PVNS cells cultured beforehand with PPARγ siRNA or control siRNA. The format is cell-based. The conditions noted are these: PPARγ siRNA 100 nM 48 hours, 100 μM rosiglitazone or 400 μM zaltoprofen.
Experiment [11] has as its system HOS cells. Kind of experiment: Suppression of proliferation of human bone sarcoma cell line HOS (CCK-8). It counts as cell-based. The conditions noted are these: 72 hours. As for the experimental part:
Cells of the human bone sarcoma cell line, HOS (purchased from American Type Culture Collection), were cultured in the same manner as that of Example 1 until they became sub-confluent. Zaltoprofen was added to the cells at concentrations of 25, 50, 100, 200 and 400 μM, color development was performed with Cell Counting Kit-8 (CCK-8, Dojindo) 72 hours thereafter, and absorbance was measured at 450 nm further 3 hours thereafter (FIG. 72).

The subject of experiment [12] is SW1353 cells. Kind of experiment: Cell migration of human chondrosarcoma cell line SW1353. The format is cell-based. The note with it: 72 hours. As to the method:
The analysis of cell migration was performed by using a 6-well plate of TPP according to the method described in Takeuchi A, et al., Cancer Science, 104:740-749, 2013 (Low molecular weight heparin suppresses receptor for advanced glycation end products-mediated expression of malignant phenotype in human fibrosarcoma cells). Cells of the human chondrosarcoma cell line, SW1353, were cultured in the same manner as that of Example 1 until they became sub-confluent, and the cells were delaminated in a width of 1 mm using a micropipette tip (200 μl). […] Then, area of the cells migrated to the region where the cells were delaminated was measured by using Image J software (http://rsb.info.nih.gov/ij/index.html) (FIGS. 73 and 74).

For experiment [13], the system named is SW1353 cells. As to the kind of experiment: Cell invasion of SW1353 cells cultured beforehand with or without GW9662. The format is cell-based, human. As for the experimental part: Cells of the human chondrosarcoma cell line, SW1353, were cultured in the same manner as that of Example 1 until they became sub-confluent, then, GW9662, which is an irreversible antagonist of PPARγ, was added to the cells at a final concentration of 1 μM, and the cells were cultured for 60 minutes. Then, zaltoprofen was added to the cells at various concentrations of 200, 300, and 400 μM, cell invasion was measured with Matrigel™ Invasion Chamber (BD Bioscience, catalog number 354480) 24 hours afterward, and the result was compared with the degree of cell invasion observed with addition of only DMSO not dissolving GW9662 (FIG. 78).

Experiment [14] concerns GCTB cultured cells (case 1, case 2; GCT-1, GCT-2). The conditions noted are these: GCTB derived from a patient; inventors' earlier reports; cited from earlier work.
Experiment [15] relates to giant cell tumor of bone (GCTB). The conditions noted are these: patient who had taken zaltoprofen for four weeks at 240 mg per day; inventors' earlier reports; cited from earlier work.
Experiment [16] has as its system H-EMC-SS cells. The conditions noted are these: inventors' earlier reports; cited from earlier work.

Regarding `CC(C(=O)O)c1ccc2c(c1)CC(=O)c1ccccc1S2` (centres unmarked) [zaltoprofen], in experiment [1], the “suppression of cell proliferation (absorbance at 450 nm)” value was “cell proliferation was suppressed”. Also, the “expression of PPARγ (PPARγ-positive images)” value is listed as “expression of PPARγ was successfully observed” in [2] and “expression of PPARγ could be confirmed” in experiment [6]. The “positive images obtained with HCS LipidTOX Green (differentiation into fat cells)” value in [3] and in [4] was “increased” each time. Also, the “caspase 3-positive ratio” value in experiment [5] is listed as “increased”. The “suppression of proliferation of OUMS-27 cells” value in experiment [7] is given as “suppressed proliferation”. Moreover, the “cell proliferation-suppressing action after preincubation with GW9662” value in experiment [8] is given as “reduced by GW9662”. Also, the “suppression of proliferation of SW1353 cells” value in experiment [9] (400 μM zaltoprofen, 24 hours) was “about 38%”. Besides, the “cell proliferation-suppressing action when expression of PPARγ is suppressed by siRNA” value in [9] (SW1353, PPARγ-siRNA 100 nM 48 hours, 400 μM zaltoprofen or 100 μM rosiglitazone) was “substantially eliminated”. Also, in [10], the “cell proliferation-suppressing action with PPARγ siRNA” value was “substantially completely eliminated”. Besides, the “suppression of proliferation of HOS cells” value in experiment [11] (400 μM zaltoprofen) is “about 60%”. Further, the “suppression of cell proliferation of HOS cells” value in experiment [11] (at 100 μM, 200 μM and 400 μM, concentration-dependent (25-400 μM tested)) is recorded as “suppressed”. In addition, the “suppression of cell migration of SW1353 cells” value in experiment [12] (400 μM zaltoprofen) is listed as “about 40%”; in experiment [12] (all set concentrations, concentration-dependent) it was “suppressed the cell migration”. In addition, in experiment [13] (400 μM zaltoprofen, 24 hours, without GW9662), the “suppression of cell invasion of SW1353 cells” value is reported as “higher than 80%”. For the same compound, the “suppression of the cell invasion after preincubation with GW9662” value in [13] (400 zaltoprofen, GW9662 1 μM) was “substantially eliminated by GW9662”. Also, the “suppression of proliferation of cells of giant cell tumor of bone” value in experiment [14] is reported as “suppressed proliferation”. Further, in experiment [15], the “giant cell tumor of bone in patient” value is listed as “giant cell tumor of bone disappeared”. The “apoptosis in H-EMC-SS cells” value in [16] is on record as “induced apoptosis”.
